Assay results taken from US9234005B2 (priority 2011, dated 2016).
Where two headings read alike, the source gives them in different places. No end group written: not given here.

Legend:
PTPN4-PDZ [1] = biological target: T1, PTPN4-PDZ (Homo sapiens, UniProt P29074, S499G); assay: biochemical
T1 sequence (P29074 499-604 S499G): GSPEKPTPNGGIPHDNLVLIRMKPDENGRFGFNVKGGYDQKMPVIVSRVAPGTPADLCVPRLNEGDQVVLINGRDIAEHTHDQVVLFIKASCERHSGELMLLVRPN

PTPN4-PDZ [2] = biological target: T1, PTPN4-PDZ; assay: biochemical; type: binding; design: PTPN4-PDZ (residues G499-N604, G499 being a non-native residue due to the TEV cleavage site); GST (N, cleaved yes); made in house; host or cells: Escherichia coli BL21 (DE3) star
U373MG astrocytoma cells = type: cell-based, human
[3] = test system: neuroblastoma cell line SK-N-SH; details: cited from earlier work
[4] = Kd for PTPN4-PDZ (dissociation constant, text)

SWEDRETEV [SEQ ID NO: 7, SWEDRETEV]
Kd (PTPN4-PDZ [1]): 3880 nM

SWEERETEF [SEQ ID NO: 6, SWEERETEF]
Kd (PTPN4-PDZ [1]): 2520 nM

SWESYRSGGEIRL [EIRL-13, SWESYRSGGEIRL]
interaction with PTPN4-PDZ, in words (PTPN4-PDZ [2]): low affinity
Kd (PTPN4-PDZ [2]; Kd, affinity for PTPN4-PDZ): 1170 µM

SWESHKSGG [Cyto9-Δ]
cell death (% of dead cells among peptide loaded cells) (U373MG astrocytoma cells): 7%
interaction with PTPN4-PDZ, in words (PTPN4-PDZ [2]): does not interact with PTPN4-PDZ
induction of cell death, in words [3]: do not

SWELYKSEGDARL [DARL-13, SWELYKSEGDARL]
Kd (PTPN4-PDZ [2]; Kd, affinity for PTPN4-PDZ): 1280 µM

SWARVSKETPL [SEQ ID NO: 4, SWARVSKETPL]
Kd (PTPN4-PDZ [2]; Kd, affinity for PTPN4-PDZ): 1.58 µM

SWERRETEV [SEQ ID NO: 5, SWERRETEV]
Kd (PTPN4-PDZ [1]): 2000 nM

shepherdin
glioblastoma death, in words (U373MG astrocytoma cells): in a range similar to those obtained with Cyto13-att

SWESHKSGGQTRL [Cyto13-vir, SWESHKSGGQTRL]
cell death (% of dead cells among peptide loaded cells) (U373MG astrocytoma cells): 8%
fold difference in Kd, Cyto13-vir versus Cyto13-att (PTPN4-PDZ [2]): 4 fold
ΔΔG0=RT ln(Kd(Cyto13-vir)/Kd(Cyto13-att)) (PTPN4-PDZ [2]): 0.76 kcal·mol^−1
Kd (PTPN4-PDZ [2]; [4]): 560 µM
Kd (PTPN4-PDZ [2]; Kd, affinity for PTPN4-PDZ): 568 µM
induction of cell death, in words [3]: do not

LNLGNDPDRGTSI [GluD2-13, LNLGNDPDRGTSI]
Kd (PTPN4-PDZ [2]; [4]): 128 µM

SWEERETEV [SEQ ID NO: 3, SWEERETEV]
Kd (PTPN4-PDZ [1]): 1350 nM

SWESHKSGGETRL [Cyto13-att, SWESHKSGGETRL]
cell death (% of dead cells among peptide loaded cells) (U373MG astrocytoma cells): more than 14%
Kd (PTPN4-PDZ [2]; Kd, affinity for PTPN4-PDZ): 157 µM
induction of cell death, in words [3]: induces cell death

SNRRVYKKMPSIESDV-OH [GluN2A-16, SNRRVYKKMPSIESDV]
cell death (% of dead cells among peptide loaded cells) (U373MG astrocytoma cells): 29%
increase of cell death compared to Cyto13-att (U373MG astrocytoma cells): two-fold increase
Kd (PTPN4-PDZ [2]): 42 µM
fold increase in affinity for PTPN4-PDZ compared to Cyto13-att (Cyto-att) (PTPN4-PDZ [2]): four-fold increase
